Assay results as given in patent publication US9101136B2, “Synergistic herbicide/fungicide composition containing certain pyridine carboxylic acids and certain fungicides” (Dow AgroSciences LLC, priority 2010, dated 2015).

Tests used:
Assay type in all cases: in vivo
[1] = system: wild pansy (Viola tricolor L; VIOTR); assay: Postemergence herbicidal activity of mixtures on wild pansy; conditions: Viola tricolor, post-emergence
Procedure: (§1) Seeds of the desired test plant species were planted in Sun Gro MetroMix 306 planting mixture, which typically has a pH of 6.0 to 6.8 and an organic matter content of about 30 percent, in plastic pots with a surface area of 103.2 square centimeters (cm^2). When required to ensure good germination and healthy plants, a fungicide treatment and/or other chemical or physical treatment was applied. The plants were grown for 7-36 days (d) in a greenhouse with an approximate 14-hour (h) photoperiod which was maintained at about 18° C. during the day and 17° C. during the night. Nutrients and water were added on a regular basis and supplemental lighting was provided with overhead metal halide 1000-Watt lamps as necessary. The plants were employed for testing when they reached the second or third true leaf stage.
(§2) Treatments consisted of a cereal fungicide compound (as listed in Tables 1 through 34) and the cereal herbicide, 4-amino-3-chloro-6-(4-chloro-2-fluoro-3-methoxyphenyl)pyridine-2-carboxylic acid, alone and in combination. Weighed amounts of acid, esters (methyl) or salts (triethylammonium, TEA) of 4-amino-3-chloro-6-(4-chloro-2-fluoro-3-methoxyphenyl)pyridine-2-carboxylic acid (Compound I) were placed in 25 milliliter (mL) glass vials and dissolved in a volume of 97:3 volume-to-volume (v/v) acetone/dimethyl sulfoxide (DMSO) to obtain 4.5 milligrams active ingredient per milliliter (mg ai/mL) concentrated solutions. […] The concentrated solutions of Compound I were diluted to 1.5 mg ai/mL with the addition of 2 volumes of an aqueous mixture containing acetone, water, isopropyl alcohol, DMSO, Agri-dex crop oil concentrate, and Triton® X-77 surfactant in a 64.7:26.0:6.7:2.0:0.7:0.01 v/v ratio. A dilution solution was prepared by mixing 1 volume of 97:3 v/v acetone/DMSO and 2 volumes of an aqueous mixture containing acetone, water, isopropyl alcohol, DMSO, Agri-dex crop oil concentrate, and Triton® X-77 surfactant in a 64.7:26.0:6.7:2.0:0.7:0.01 v/v ratio. Compound requirements are based upon a 12 mL application volume at a rate of 187 liters per hectare (L/ha). The concentrated solutions of the cereal fungicides were prepared following the same procedure. Weighed amounts of fungicide were placed in 25 mL glass vials and dissolved in a volume of 97:3 v/v acetone/DMSO to obtain concentrated fungicide solutions. The concentrated solutions of the safener were prepared following the same procedure. Weighed amounts of safener were placed in 25 mL glass vials and dissolved in a volume of 97:3 v/v acetone/DMSO to obtain concentrated safener solutions.
(§3) Spray solutions of the cereal herbicide and the fungicidal compound mixtures were prepared by adding the concentrated solutions to the appropriate amount of dilution solution to form 12 mL spray solution with active ingredients in combinations. Spray solutions of the cereal herbicide, herbicide safener and the fungicidal compound mixtures were prepared by adding the concentrated solutions to the appropriate amount of dilution solution to form 12 mL spray solution with active ingredients in combinations.
(§4) Formulated compounds were applied to the plant material with an overhead Mandel track sprayer equipped with 8002E nozzles calibrated to deliver 187 L/ha over an application area of 0.503 square meters (m^2) at a spray height of 18 inches […] above average plant canopy. Control plants were sprayed in the same manner with the solvent blank.
(§5) The treated plants and control plants were placed in a greenhouse as described above and watered by sub-irrigation to prevent wash-off of the test compounds. After 20-22 d, the condition of the test plants as compared with that of the control plants was determined visually and scored on a scale of 0 to 100 percent where 0 corresponds to no injury and 100 corresponds to complete kill. […]

[2] = system: kochia (Kochia scoparia L; KCHSC); assay: Postemergence herbicidal activity of mixtures on kochia; parameters: pest or weed control: dose or concentration left out as unconfirmed; conditions: for KCHSC Ob (observed control): alone
Procedure: as §1, §2, §3, §4, §5

[3] = system: bird's-eye speedwell (Veronica persica L; VERPE); assay: Postemergence herbicidal activity of mixtures on bird's-eye speedwell; conditions: Veronica persica, post-emergence, read-out: VERPE Ob
Procedure: as §1, §2, §3, §4, §5

[4] = system: scented mayweed (Matricaria chamomila L; MATCH); assay: Postemergence herbicidal activity of mixtures on scented mayweed; parameters: pest or weed control: dose or concentration left out as unconfirmed; conditions: for MATCH Ob (observed control): alone
Procedure: as §1, §2, §3, §4, §5

[5] = system: Russian thistle (Salsola iberica L; SASKR); assay: Postemergence herbicidal activity of mixtures on Russian thistle
Procedure: as §1, §2, §3, §4, §5

Fc1ccc([C@]2(Cn3cncn3)O[C@H]2c2ccccc2Cl)cc1 (racemic) [Epoxiconazole, rel-1-[[(2R,3S)-3-(2-chlorophenyl)-2-(4-fluorophenyl)oxiranyl]methyl]-1H-1,2,4-triazole]
0%: pest or weed control at 31.25 g/ha ([1]; fungicide 31.25 g/ha alone, read-out: VIOTR Ob) | pest or weed control at 31.25 g/ha ([2]; Bassia scoparia, post-emergence, fungicide 31.25 g/ha alone, read-out: KCHSC Ob) | pest or weed control at 31.25 g/ha ([3]; fungicide 31.25 g/ha alone) | pest or weed control at 31.25 g/ha ([4]; Matricaria, post-emergence, fungicide 31.25 g/ha alone, read-out: MATCH Ob) | pest or weed control at 31.25 g/ha ([5]; Salsola tragus, post-emergence, fungicide 31.25 g/ha alone, read-out: SASKR Ob)

COC(=O)Nc1nc2ccccc2[nH]1 [Carbendazim, methyl 1H-benzimidazol-2-ylcarbamate]
0%: pest or weed control at 62.5 g/ha ([1]; fungicide 62.5 g/ha alone, read-out: VIOTR Ob) | pest or weed control at 62.5 g/ha ([2]; Bassia scoparia, post-emergence, fungicide 62.5 g/ha alone, read-out: KCHSC Ob)

N#Cc1c(Cl)c(Cl)c(Cl)c(C#N)c1Cl [Chlorothalonil, 2,4,5,6-tetrachloro-1,3-benzenedicarbonitrile]
0%: pest or weed control at 250 g/ha ([1]; fungicide 250 g/ha alone, read-out: VIOTR Ob) | pest or weed control at 250 g/ha ([2]; Bassia scoparia, post-emergence, fungicide 250 g/ha alone, read-out: KCHSC Ob) | pest or weed control at 250 g/ha ([3]; fungicide 250 g/ha alone) | pest or weed control at 250 g/ha ([4]; Matricaria, post-emergence, fungicide 250 g/ha alone, read-out: MATCH Ob) | pest or weed control at 250 g/ha ([5]; Salsola tragus, post-emergence, fungicide 250 g/ha alone, read-out: SASKR Ob)

Cc1cc(C2CC2)nc(Nc2ccccc2)n1 [Cyprodinil, 4-cyclopropyl-6-methyl-N-phenyl-2-pyrimidinamine]
0%: pest or weed control at 187.5 g/ha ([5]; Salsola tragus, post-emergence, fungicide 187.5 g/ha alone, read-out: SASKR Ob)

OC(Cn1cncn1)(c1ccc(F)cc1)c1ccccc1F (stereo not drawn) [Flutriafol, α-(2-fluorophenyl)-α-(4-fluorophenyl)-1H-1,2,4-triazole-1-ethanol]
0%: pest or weed control at 21.25 g/ha ([1]; fungicide 21.25 g/ha alone, read-out: VIOTR Ob) | pest or weed control at 21.25 g/ha ([2]; Bassia scoparia, post-emergence, fungicide 21.25 g/ha alone, read-out: KCHSC Ob) | pest or weed control at 21.25 g/ha ([4]; Matricaria, post-emergence, fungicide 21.25 g/ha alone, read-out: MATCH Ob) | pest or weed control at 21.25 g/ha ([5]; Salsola tragus, post-emergence, fungicide 21.25 g/ha alone, read-out: SASKR Ob)

CO/N=C(/C(=O)OC)c1ccccc1COc1ccccc1C [Kresoxim-methyl, methyl (αE)-α-(methoxyimino)-2-[(2-methylphenoxy)methyl]benzeneacetate]
0%: pest or weed control at 25 g/ha ([4]; Matricaria, post-emergence, fungicide 25 g/ha alone, read-out: MATCH Ob)

CC1(C)CCC(Cc2ccc(Cl)cc2)C1(O)Cn1cncn1 (stereo not drawn) [Metconazole, 5-[(4-chlorophenyl)methyl]-2,2-dimethyl-1-(1H-1,2,4-triazol-1-ylmethyl)cyclopentanol]
0%: pest or weed control ([2]; Bassia scoparia, post-emergence, read-out: KCHSC Ob) | pest or weed control ([4]; Matricaria, post-emergence, read-out: MATCH Ob)

COc1cc(C)c(C(=O)c2c(OC)ccc(Br)c2C)c(OC)c1OC [Metrafenone, (3-bromo-6-methoxy-2-methylphenyl)(2,3,4-trimethoxy-6-methylphenyl)methanone]
0%: pest or weed control at 37.5 g/ha ([1]; fungicide 37.5 g/ha alone, read-out: VIOTR Ob) | pest or weed control at 37.5 g/ha ([4]; Matricaria, post-emergence, fungicide 37.5 g/ha alone, read-out: MATCH Ob) | pest or weed control at 37.5 g/ha ([5]; Salsola tragus, post-emergence, fungicide 37.5 g/ha alone, read-out: SASKR Ob)

CCCOc1nc2ccc(I)cc2c(=O)n1CCC [Proquinazid, 6-iodo-2-propoxy-3-propyl-4(3H)-quinazolinone]
0%: pest or weed control at 12.5 g/ha ([1]; fungicide 12.5 g/ha alone, read-out: VIOTR Ob) | pest or weed control at 12.5 g/ha ([4]; Matricaria, post-emergence, fungicide 12.5 g/ha alone, read-out: MATCH Ob)

OC(Cc1ccccc1Cl)(Cn1[nH]cnc1=S)C1(Cl)CC1 (stereo not drawn) [Prothioconazole, 2-[2-(1-chlorocyclopropyl)-3-(2-chlorophenyl)-2-hydroxypropyl]-1,2-dihydro-3H-1,2,4-triazole-3-thione]
0%: pest or weed control at 50 g/ha ([2]; Bassia scoparia, post-emergence, fungicide 50 g/ha alone, read-out: KCHSC Ob) | pest or weed control at 50 g/ha ([3]; fungicide 50 g/ha alone) | pest or weed control at 50 g/ha ([4]; Matricaria, post-emergence, fungicide 50 g/ha alone, read-out: MATCH Ob) | pest or weed control at 50 g/ha ([5]; Salsola tragus, post-emergence, fungicide 50 g/ha alone, read-out: SASKR Ob)

CCCN(CC)CC1COC2(CCC(C(C)(C)C)CC2)O1 (stereo not drawn) [Spiroxamine, 8-(1,1-dimethylethyl)-N-ethyl-N-propyl-1,4-dioxaspiro[4.5]decane-2-methanamine]
0%: pest or weed control at 180 g/ha ([1]; alone, 180 g/ha, read-out: VIOTR Ob (observed control)) | KCHSC Ob (observed control) ([2]; 180 g/ha) | MATCH Ob (observed control) ([4]; 180 g/ha)

COc1ccnc(C(=O)N[C@H]2COC(=O)[C@H](Cc3ccccc3)[C@@H](OC(=O)C(C)C)[C@H](C)OC2=O)c1OCOC(=O)C(C)C [compound II, isobutyric acid (3S,6S,7R,8R)-8-benzyl-3-[(3-isobutyryloxymethoxy-4-methoxypyridine-2-carbonyl)-amino]-6-methyl-4,9-dioxo-[1,5]dioxonan-7-yl ester]
0%: pest or weed control at 40.5 g/ha ([1]; read-out: VIOTR Ob (observed control)) | KCHSC Ob (observed control) ([2]; 40.5 g/ha) | MATCH Ob (observed control) ([4]; 40.5 g/ha) | SASKR Ob (observed control) ([5]; alone, 40.5 g/ha)
